Measurements reported in article PMC4318582, “Chemotherapy of Second Stage Human African Trypanosomiasis: Comparison between the Parenteral Diamidine DB829 and Its Oral Prodrug DB868 in Vervet Monkeys” (PLoS Neglected Tropical Diseases, 2015).
Several values for one entry are separate records, joined by “and”; a condition that tells them apart may be missing. Identical values can stand only once. Like-named read-outs stand apart in the source and are kept apart here.

Columns and labels:
[1] = system: T. b. rhodesiense KETRI 2537; assay: Efficacy in KETRI vervet monkey model of second stage HAT; type: in vivo
Source text: The current study used the KETRI vervet monkey model of HAT, a model developed over 30 years ago through the experimental infection of vervet monkeys with T. b. rhodesiense. […] Trypanosomes were identified in peripheral blood first and cerebrospinal fluid (CSF) second, allowing the disease to be classified into an early (haemo-lymphatic) and a late (central nervous system [CNS]) stage, similar to the human disease. […] Monkey trypanosomal infections have been determined to be invariably fatal without therapeutic intervention, a characteristic also widely accepted as true for human sleeping sickness.
Parasitaemia and CSF parasitosis were monitored using established techniques for blood trypanosomes and CSF trypanosomes, respectively.
Due to a regulated freeze on acquisitions of new non-human primates, only six monkeys were available for the IM DB829 study. These animals were divided into three treatment groups, each consisting of one male and one female, to compare dose-responsiveness between consecutive- and alternate-day dosing. Monkeys were treated with 2.5 or 5 mg/kg/day for 5 consecutive days or with 5 mg/kg/day on alternating days for a total of 5 doses (Table 1).
Twelve additional monkeys were available for the oral DB868 efficacy study. These animals were, before infection, divided into three groups, each consisting of two males and two females. DB868 was administered orally to each group at 3, 10 or 20 mg/kg/day for 10 consecutive days (Table 2).
(§1) Parasitaemia post-infection was monitored daily, using ear-prick capillary blood, through the completion of DB868 and DB829 treatment. […] At 300 days post-LDD, monkeys were considered cured if they remained normal clinically and parasite-free in the blood and CSF. Pharmacokinetic outcomes were monitored for a minimum of 60 days post-LDD as described previously. […] Monkeys that relapsed, characterized by trypanosome recrudescence in the blood or CSF, were rescue-treated with melarsoprol.

[2] = CSF DB829 concentrations in infected vervet monkeys; type: in vivo, vervet monkey; settings: for concentration at 1 h: 5 mg/kg/day, read-out: geometric mean CSF DB829 concentration
Source text: as §1
Plasma samples were processed for quantification of DB868 and DB829 by high performance liquid chromatography-tandem mass spectrometry (HPLC-MS/MS) as described previously. CSF samples were processed in a manner similar to that of plasma samples.

[3] = Tolerability of dose regimens in infected vervet monkeys; type: in vivo, vervet monkey; settings: all IM DB829 and oral DB868 dose regimens
Source text: Parasitaemia post-infection was monitored daily, using ear-prick capillary blood, through the completion of DB868 and DB829 treatment. Following the last drug dose (LDD), blood and CSF samples were examined for trypanosomes at 1, 4, 7, and 14 days to determine the end of treatment (EoT) response; monkeys which were positive for trypanosomes in either blood or CSF at the end of this 14-day period were classified as treatment failures/not cured while those that were free of trypanosomes were classified as provisionally cured. After the 14-day EoT evaluations, parasitaemia examinations were continued twice weekly to ≥ 300 days post-LDD as described previously. Additionally, physical examinations and haematological assessments were carried out once weekly up to 28 days post-LDD, once every two weeks between 28 and 100 days post-LDD, and monthly thereafter until the end of the study as described previously. At 300 days post-LDD, monkeys were considered cured if they remained normal clinically and parasite-free in the blood and CSF. Pharmacokinetic outcomes were monitored for a minimum of 60 days post-LDD as described previously. To facilitate the collection of blood and CSF for these assessments, the monkeys were anaesthetised with an IM injection of ketamine HCl (10–15 mg/kg) and diazepam (0.5 mg/kg). […]

[4] = system: T. b. rhodesiense STIB900; design: method as in PMID 19620327; settings: read-out: in vitro IC50; cited from earlier work
T. b. brucei GVR35 = system: T. b. brucei GVR35; design: method as in PMID 19620327; settings: cited from earlier work
[5] = IM 2.5mg/kg × 5 days, monkeys 546M, 693F
[6] = IM 5 mg/kg × 5 alternate days, monkeys 668M, 676F
[7] = IM 5 mg/kg × 5 days, monkeys 569F, 659M

N=C(N)c1ccc(-c2ccc(-c3ccc(C(=N)N)cn3)o2)nc1 [DB829, 2,5-bis(5-amidino-2-pyridyl)furan]
Cured/treated ([1]; IM 2.5mg/kg × 5 days): 2/2 | Final efficacy assessment at 300 days post-LDD of DB829 [1, 5]: Cured | Provisional efficacy at 100 days post-LDD of DB829 [1, 5]: Cured | Trypanosomes at EoT [1, 5]: Neg | Cured/treated ([1]; IM 5 mg/kg × 5 alternate days): 2/2 | Final efficacy assessment at 300 days post-LDD of DB829 [1, 6]: Cured | Provisional efficacy at 100 days post-LDD of DB829 [1, 6]: Cured | Trypanosomes at EoT [1, 6]: Neg | Cured/treated ([1]; IM 5 mg/kg × 5 days): 1/1 | Time to initial clearance of trypanosomes from body fluids (blood and CSF) ([1]; IM 5 mg/kg × 5 days, alternate-day dosing (28, 30, 30, 32, 34 and 36 DPI), monkeys 668M, 676F): 1 days post-LDD | Time to initial clearance of trypanosomes from body fluids (blood and CSF) ([1]; IM 5mg/kg × 5 days, consecutive-day dosing 28–32 DPI, monkeys 569F, 659M): 1 days post-LDD | Final efficacy assessment at 300 days post-LDD of DB829 ([1]; IM 5 mg/kg × 5 days, monkey 569F (659M withdrawn)): Cured | Provisional efficacy at 100 days post-LDD of DB829 [1, 7]: Cured | Trypanosomes at EoT [1, 7]: Neg | Time to initial clearance of trypanosomes from body fluids (blood and CSF) ([1]; IM, monkeys 546M, 693F, Table 3 prints 5mg/kg × 5 days, consecutive-day dosing 28–32 DPI (text: 2.5 mg/kg/day)): 4 days post-LDD and 7 days post-LDD | Final efficacy assessment at 300 days post-LDD of DB829, Overall Results (final combined cure rate) ([1]; all IM DB829 regimens combined): cured all monkeys and 5/5 | Provisional efficacy at 100 days post-LDD of DB829, Overall Results ([1]; all IM DB829 regimens combined): 6/6 | Trypanosomes at EoT, Overall Results (provisional cure rate) ([1]; all IM DB829 regimens combined): 6/6 | CSF DB829 concentration ([2]; IM 2.5 mg/kg/day consecutive-day dose group, limit of quantification 5 nmol/L): < 5 nmol/L | geometric mean CSF DB829 concentration ([2]; IM 5 mg/kg/day alternate-day dose group, 1 h post-LDD): ~7.3 nmol/L | CSF DB829 concentration ([2]; IM 5 mg/kg/day consecutive-day dose group, by 28 days post-LDD): below the limit of quantification | time DB829 CSF concentrations maintained above 5 nmol/L ([2]; IM 5 mg/kg/day regimens): 2–28 days post-LDD | concentration at 1 h ([2]; monkey, CSF, intramuscular, IM 5 mg/kg/day alternate-day dose group, 1 h post-LDD): 7.3 nM | concentration at 1 h ([2]; monkey, CSF, intramuscular, IM 5 mg/kg/day consecutive-day dose group, 1 h post-LDD): 14 nM | Kp at 1 h ([2]; monkey, CSF, intramuscular, IM 5 mg/kg/day, either regimen, 1 h post-LDD, read-out: CSF concentration as share of total (bound + unbound) plasma concentration): ~0.001 | CSF DB829 concentration ([2]; monkeys treated with oral DB868): not quantifiable | tolerability of dose regimens [3]: well tolerated | IC50 [4]: 14 nM | efficacy in the murine model of second stage HAT (T. b. brucei GVR35): fully curative
